Literature values as cited in article PMC7664160 (ACS infectious diseases, 2020).

Test system: intracellular C. neoformans

In the case of `OC(Cn1cncn1)(Cn1cncn1)c1ccc(F)cc1F` [fluconazole], the “fungicidal activity against intraphagocytic C. neoformans” value is listed as “neither fluconazole nor amphotericin B have fungicidal activity”.

For `C[C@@H]1[C@H](O)[C@@H](C)/C=C/C=C/C=C/C=C/C=C/C=C/C=C/[C@H](O[C@@H]2O[C@H](C)[C@@H](O)[C@H](N)[C@@H]2O)C[C@@H]2O[C@](O)(C[C@@H](O)C[C@@H](O)[C@H](O)CC[C@@H](O)C[C@@H](O)CC(=O)O[C@H]1C)C[C@H](O)[C@H]2C(=O)O` [amphotericin B], the “fungicidal activity against intraphagocytic C. neoformans” value is listed as “neither fluconazole nor amphotericin B have fungicidal activity”.
